Measured values as given in patent US12281121B2, “N-containing heteroaryl derivative and pharmaceutical composition comprising same as active ingredient for prevention or treatment of cancer” (VORONOI Inc., priority 2019, dated 2025).

Legend:
RET (WT) = target: T1, RET (WT) (Homo sapiens, UniProt P07949); assay: RET enzyme inhibitory ability, ADP-Glo kinase assay; assay type: biochemical; conditions: ATP 10 μM, 25° C., 1 hour
T1 construct: human RET (658-end, SIGNALCHEM); purchased SIGNALCHEM
T1 sequence (P07949 658-1114 limits assumed): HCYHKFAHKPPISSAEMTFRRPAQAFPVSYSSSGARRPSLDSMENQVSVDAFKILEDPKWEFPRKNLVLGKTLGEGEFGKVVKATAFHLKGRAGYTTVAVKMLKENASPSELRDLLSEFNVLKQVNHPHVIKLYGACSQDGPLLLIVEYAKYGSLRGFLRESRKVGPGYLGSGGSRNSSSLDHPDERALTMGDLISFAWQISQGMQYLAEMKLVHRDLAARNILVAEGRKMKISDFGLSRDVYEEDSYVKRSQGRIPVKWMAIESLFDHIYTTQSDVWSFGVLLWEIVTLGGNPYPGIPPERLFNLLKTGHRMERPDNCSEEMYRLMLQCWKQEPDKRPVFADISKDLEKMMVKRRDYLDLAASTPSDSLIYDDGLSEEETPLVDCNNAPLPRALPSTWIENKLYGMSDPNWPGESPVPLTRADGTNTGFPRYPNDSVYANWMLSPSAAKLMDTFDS
Protocol: The Example compound was reacted with a purified human RET (658-end, SIGNALCHEM) enzyme to evaluate the enzyme inhibitory ability by the following method. As a reaction buffer, a composition of 40 mM Tris-HCl pH 7.4, 20 mM MgCl2, 0.5 mg/mL BSA, and 50 μM DTT was used, and all experimental materials were reacted on the reaction buffer. After the human RET (658-end, 0.8 ng) enzyme was reacted with purified ATP (10 μM) and a specific substrate solution at 25° C. for 1 hour during the experiment, the enzyme activity was confirmed using in vitro ADP-Glo™ kinase assay (Promega). Luminescence was measured by reacting the enzyme activity reaction solution, the ADP-Glo reaction solution, and the enzyme activity detection solution at a ratio of 2:2:1. The degree of inhibition of enzyme activity according to the treatment concentration of each compound was calculated based on the […] of the enzyme activity of a solvent control group in which a compound was not treated, and in this case, the concentration of each compound which suppresses the […] enzyme activity by 50% was determined as an IC50 (nM) value. The IC50 (nM) of each compound was determined by 3 datasets and obtained using Prism (version 7.01, GraphPad) software.
In the enzyme assay column, RET (WT) is a non-mutated form, RET (V804M) is a mutated form in which the V amino acid at position 804 of the RET is substituted with M, and CCDC6-RET is a form in which the RET (WT) gene and CCDC6 gene are fused.

Ba/F3 (naive) cells = assay: Cell proliferation inhibition, CellTiter-Glo; assay type: cell-based; conditions: Mus musculus, BaF3; Ba/F3 not transduced, 72 hours
Protocol: (§1) Among lung cancer cell lines, which express RET fusion genes, LC-2/ad cells were cultured after adding 10% FBS (HyClone) to RPMI:F12 (1:1) (Invitrogen), and F-12 (Invitrogen) supplemented with 10% FBS was used for TT cells. RPMI-1640 supplemented with 10% FBS and 5 ng/ml IL-3 (R&D Systems) was used for Ba/F3 cells. Transduced Ba/F3 cells were cultured by adding 1 ug/ml puromycin (Invitrogen) to the same medium. 24 hours before cells were treated with the compound, 3000 to 5000 cells were aliquoted into each well of a white clear bottom 96 well plate (Corning). The compound was diluted in DMSO (3-fold dilution, a total of 12 concentrations) and the compound was injected by 0.5 μl such that the final concentration was 0.3 nM to 50 μM. For the measurement of living cells, 72 hours after the compound treatment, the cells were stored at room temperature for 10 minutes using a CellTiter-Glo luminescent cell-viability agent (Promega), and then the luminescence intensity was measured using a reader (SynergyNeo, Biotek). Each experiment was repeated in triplicate. The result value was calculated by the cell growth ratio (%) compared to the control. A graph was drawn using the GraphPad Prism version 5.0 program, and a GI50 (nM) value was calculated.
(§2) In the cell assay column, LC-2/ad (with CCDC6-RET gene) is a lung cancer cell line, a TT cell line ([…]) is a thyroid cancer cell line, Ba/F3 CCDC6-RET (WT), Ba/F3 KIF5B-RET (WT), and Ba/F3 KIF5B-RET (V804M) are cells in which disease-related traits (CCDC6-RET, KIF5B-RET, and KIF5B-RET (V804M)) are introduced into Ba/F3 cells, and Ba/F3 (naive) is a cell which is not transduced.

[1] = tested on: Ba/F3 CCDC6-RET (WT) cells; assay: Cell proliferation inhibition, CellTiter-Glo; assay type: cell-based; conditions: BaF3/CCDC6-RET, 72 hours
Protocol: as §1, §2

[2] = tested on: Ba/F3 KIF5B-RET (V804M) cells; assay: Cell proliferation inhibition, CellTiter-Glo; assay type: cell-based; conditions: Mus musculus, BaF3, 72 hours
Protocol: as §1, §2

[3] = tested on: Ba/F3 KIF5B-RET (WT) cells; assay: Cell proliferation inhibition, CellTiter-Glo; assay type: cell-based; conditions: Mus musculus, BaF3, 72 hours
Protocol: as §1, §2

| Structure (SMILES) | IC50 (RET (WT)) [nM] | GI50 (Ba/F3 (naive) cells) [nM] | GI50 [1] [nM] | GI50 [2] [nM] | GI50 [3] [nM] |
| --- | --- | --- | --- | --- | --- |
| COc1cnc(CN2C3CC2CN(c2ccc(-c4nc(Nc5cc(C)[nH]n5)c5ccccc5n4)cn2)C3)cn1 [Example 17, 2-(6-(6-((5-methoxypyrazin-2-yl)methyl)-3,6-diazabicyclo [3.1.1]heptan-3-yl)pyridin-3-yl)-N-(5-methyl-1H-pyrazol-3-yl)quinazolin-4-amine] | 11 | 867 | 46 | 7 | 10 |
| Cc1cc(Nc2nc(-c3ccc(N4CC5CC(C4)N5Cc4ccc5ncccc5c4)nc3)nc3ccccc23)n[nH]1 [Example 18, N-(5-methyl-1H-pyrazol-3-yl)-2-(6-(6-(quinolin-6-ylmethyl)-3,6-diazabicyclo [3.1.1]heptan-3-yl)pyridin-3-yl)quinazolin-4-amine] | 34 | 4600 | 67 | 25 | 28 |
| Cc1csc(CN2C3CC2CN(c2ccc(-c4nc(Nc5cc(C)[nH]n5)c5ccccc5n4)cn2)C3)n1 [Example 19, N-(5-methyl-1H-pyrazol-3-yl)-2-(6-(6-((4-methylthiazol-2-yl)methyl)-3,6-diazabicyclo [3.1.1]heptan-3-yl)pyridin-3-yl)quinazolin-4-amine] | 40 | 1230 | 120 | 28 | 29 |
| Cc1cc(Nc2nc(-c3ccc(N4CC5CC(C4)N5Cc4ccc(N(C)C)nc4)nc3)nc3ccccc23)n[nH]1 [Example 20, 2-(6-(6-((6-(di-methylamino)py-ridin-3-yl)meth-yl)-3,6-diazabicyclo [3.1.1]heptan-3-yl)pyridin-3-yl)-N-(5-methyl-1H-pyrazol-3-yl)quinazolin-4-amine] | 14 | 2780 | 44 | 6 | 11 |
| Cc1cc(Nc2nc(-c3ccc(N4CC5CC(C4)N5Cc4ccc(F)cc4)nc3)nc3ccccc23)n[nH]1 [Example 22, 2-(6-(6-(4-fluorobenzyl)-3,6-diazabicyclo [3.1.1]heptan-3-yl)pyridin-3-yl)-N-(5-methyl-1H-pyrazol-3-yl)quinazolin-4-amine] | 20 | 1220 | 55 | 6 | 20 |
| Cc1cc(Nc2nc(-c3ccc(N4CC5CC(C4)N5Cc4ccc(F)nc4)nc3)nc3ccccc23)n[nH]1 [Example 23, 2-(6-(6-((6-fluoropyridin-3-yl)methyl)-3,6-diazabicyclo [3.1.1]heptan-3-yl)pyridin-3-yl)-N-(5-methyl-1H-pyrazol-3-yl)quinazolin-4-amine] | 15 | 1300 | 57 | 19 | 14 |
| CCOc1ccc(CN2C3CC2CN(c2ccc(-c4nc(Nc5cc(C)[nH]n5)c5ccccc5n4)cn2)C3)cn1 [Example 24, 2-(6-(6-((6-ethoxypyridin-3-yl)methyl)-3,6-diazabicyclo [3.1.1]heptan-3-yl)pyridin-3-yl)-N-(5-methyl-1H-pyrazol-3-yl)quinazolin-4-amine] | 14 | 4320 | 53 | 10 | 12 |
| Cc1ncc(CN2C3CC2CN(c2ccc(-c4nc(Nc5cc(C)[nH]n5)c5ccccc5n4)cn2)C3)cn1 [Example 25, N-(5-methyl-1H-pyrazol-3-yl)-2-(6-(6-((2-methylpyrimidin-5-yl)methyl)-3,6-diazabicyclo [3.1.1]heptan-3-yl)pyridin-3-yl)quinazolin-4-amine] | 7 | 1650 | 50 | 21 | 14 |
| Cc1cnc(CN2C3CC2CN(c2ccc(-c4nc(Nc5cc(C)[nH]n5)c5ccccc5n4)cn2)C3)cn1 [Example 26, N-(5-methyl-1H-pyrazol-3-yl)-2-(6-(6-((5-methylpyrazin-2-yl)methyl)-3,6-diazabicyclo [3.1.1]heptan-3-yl)pyridin-3-yl)quinazolin-4-amine] | 7 | 973 | 37 | 10 | 10 |
| COc1ccc(CN2CCN(c3ccc(-c4nc(Nc5cc(C)[nH]n5)c5ccccc5n4)cn3)CC2(C)C)cn1 [Example 29, 2-(6-(4-((6-meth-oxypyridin-3-yl)methyl)-3,3-dimethyl-piperazin-1-yl)pyridin-3-yl)-N-(5-methyl-1H-pyrazol-3-yl)quinazolin-4-amine] | 123 | 6320 | 454 | 89 | 164 |
| COc1ccc(CN2CCCN(c3ccc(-c4nc(Nc5cc(C)[nH]n5)c5ccccc5n4)cn3)CC2)cn1 [Example 30, 2-(6-(4-((6-methoxypyridin-3-yl)methyl)-1,4-diazepan-1-yl)pyridin-3-yl)-N-(5-methyl-1H-pyrazol-3-yl)quinazolin-4-amine] | 34 | 1130 | 99 | 25 | 44 |
| COc1ccc(CN2C[C@@H]3C[C@H]2CN3c2ccc(-c3nc(Nc4cc(C)[nH]n4)c4ccccc4n3)cn2)cn1 [Example 31, 2-(6-((1S,4S)-5-((6-methoxy-pyridin-3-yl)methyl)-2,5-diazabicyclo [2.2.1]heptan-2-yl)pyridin-3-yl)-N-(5-methyl-1H-pyrazol-3-yl)quinazolin-4-amine] | 25 | 1680 | 66 | 12 | 18 |
| COc1ccc(CN2C[C@H]3C[C@@H]2CN3c2ccc(-c3nc(Nc4cc(C)[nH]n4)c4ccccc4n3)cn2)cn1 [Example 34, 2-(6-((1R,4R)-5-((6-methoxy-pyridin-3-yl)methyl)-2,5-diazabicyclo [2.2.1]heptan-2-yl)pyridin-3-yl)-N-(5-methyl-1H-pyrazol-3-yl)quinazolin-4-amine] | 16 | 2590 | 65 | 20 | 19 |
| COc1ccc(CN2CCN(c3ccc(-c4nc(Nc5cc(C)[nH]n5)c5ccccc5n4)cn3)C[C@H]2C)cn1 [Example 36, (R)-2-(6-(4-((6-methoxypyridin-3-yl)methyl)-3-methylpiperazin-1-yl)pyridin-3-yl)-N-(5-methyl-1H-pyrazol-3-yl)quinazolin-4-amine] | 59 | 4800 | 259 | 32 | 63 |
| COc1ccc(CN2CCN(c3ccc(-c4nc(Nc5cc(C)[nH]n5)c5ccccc5n4)cn3)CC23CC3)cn1 [Example 37, 2-(6-(4-((6-methoxypyridin-3-yl)methyl)-4,7-diazaspiro[2.5]oc-tan-7-yl)pyridin-3-yl)-N-(5-meth-yl-1H-pyrazol-3-yl)quinazolin-4-amine] | 219 | 4650 | 305 | 50 | 107 |
